Data reported in patent US6426067B1, “Angiogenic inhibitory compounds” (Biomolecular Research Institute, Ltd., priority 1996, dated 2002).

Test system: Chorioallantioic Membrane (CAM)
Type: in vivo
Settings: 50 μg/cam; BRI2995: surviving eggs
Protocol: The in vivo CAM angiogenesis model, initially described by Folkman (1985) and modified by Maragoudakis et al (1988) was used. Briefly, fresh fertilized eggs were incubated for 4 days at 37° C. when a window was opened on the egg shell exposing the CAM. The window was covered with cellophane tape and the eggs were returned to the incubator until day 9 when the test compounds were applied. The test compounds were placed on sterile plastic discs (10 mm) and were allowed to dry under sterile conditions. Control discs (containing PBS) were placed on the CAM 1 cm away from the discs containing the test material. A sterile solution of cortisone acetate (100 ug/disc, Sigma) was incorporated in all discs in order to prevent an inflammatory response. The loaded and dried discs were inverted and placed on the CAM, the windows were covered and the eggs incubated until day 11 when angiogenesis was assessed.
For morphological evaluation, eggs were treated as above. At day 11 the eggs were flooded with 10% buffered formalin (Janssen Chimica, Geel, Belguim), the plastic discs were removed and the eggs were kept at room temperature for at least 4 hours. At large area around the disc was cut off and placed on a glass slide, and the vascular density index (expressed as number of blood vessels) was measured by the method of Harris-Hooker et al (1983).

SMILES: CO[C@@H]1[C@H](OC(=O)NC(=O)CCl)CC[C@]2(CO2)[C@H]1[C@@]1(C)O[C@@H]1CC=C(C)C [TNP-470]
- inhibition (reduction) of vascular density: 21%±16
